Data reported in article PMC10141580, “Cyclic Dichalcogenides Extend the Reach of Bioreductive Prodrugs to Harness Thiol/Disulfide Oxidoreductases: Applications to seco-Duocarmycins Targeting the Thioredoxin System” (ACS Central Science, 2023).
Where two headings read alike, the source gives them in different places.

Columns and labels:
[1] = tested on: NCI-60 standardized human tumor cell line panel; experiment: cells; format: cell-based; conditions: for GI50: Homo sapiens
HeLa-HRE cells = experiment: Resazurin cytotoxicity assay, HeLa-HRE, 48 h
Experimental: We used A549 lung cancer and HeLa cervical cancer cell lines for initial screening of the prodrugs.
HeLa-HRE cells were treated with prodrugs of the
Dose -response curves were calculated from at least 27 incremental single concentrations over a
range of at least three log units.

SMILES: COc1cc2cc(C(=O)N3C[C@@H](CCl)c4c3cc(OC(=O)N3CCN(C(=O)CCC(=O)N5CCN(C)CC5)[C@H]5CSSC[C@H]53)c3ccccc43)[nH]c2c(OC)c1OC [P-SS66C-CBI-TMI]
- GI50 ([1]; RPMI-8226, RPMI-8226, read-out: GI50): 140 nM
- GI50 ([1]; RPMI-8226, cell line RPMI-8226 (LE:RPMI-8226), TMI sheet, read-out: NCI-60 screening: Log(GI50) (converted)): 141 nM
- GI50 ([1]; RPMI-8226, cell line RPMI-8226 (LE:RPMI-8226), TMI sheet, read-out: NCI-60 screening: Raw GI50): 140 nM
- GI50 ([1]; RXF 393, RXF 393 (RE) cell line, log10 of GI50 in M, read-out: NCI-60 screening: Log(GI50) (converted)): 34.7 nM
- GI50 ([1]; RXF 393, RXF 393, read-out: GI50): 35 nM
- GI50 ([1]; SF-268, SF-268, read-out: GI50): 58 nM
- GI50 ([1]; SF-268, cell line SF-268 (CNS:SF-268), TMI sheet, read-out: NCI-60 screening: Log(GI50) (converted)): 58.9 nM
- GI50 ([1]; SF-295, SF-295, read-out: GI50): 110 nM
- GI50 ([1]; SF-295, cell line SF-295 (CNS:SF-295), TMI sheet, read-out: NCI-60 screening: Log(GI50) (converted)): 112 nM
- GI50 ([1]; SF-295, cell line SF-295 (CNS:SF-295), TMI sheet, read-out: NCI-60 screening: Raw GI50): 110 nM
- GI50 ([1]; SF-539, SF-539, read-out: GI50): 39 nM
- GI50 ([1]; SK-MEL-5, SK-MEL-5, read-out: GI50): 110 nM
- GI50 ([1]; SK-MEL-5, cell line SK-MEL-5 (ME:SK-MEL-5), TMI sheet, read-out: NCI-60 screening: Log(GI50) (converted)): 112 nM
- GI50 ([1]; SK-MEL-5, cell line SK-MEL-5 (ME:SK-MEL-5), TMI sheet, read-out: NCI-60 screening: Raw GI50): 110 nM
- GI50 ([1]; SK-MEL-28, SK-MEL-28, read-out: GI50): 160 nM
- GI50 ([1]; SK-MEL-28, cell line SK-MEL-28 (ME:SK-MEL-28), TMI sheet, read-out: NCI-60 screening: Log(GI50) (converted)): 158 nM
- GI50 ([1]; SK-OV-3, SK-OV-3 (OV) cell line, log10 of GI50 in M, read-out: NCI-60 screening: Log(GI50) (converted)): 72.4 nM
- GI50 ([1]; SK-OV-3, SK-OV-3, read-out: GI50): 72 nM
- GI50 ([1]; SN12C, SN12C (RE) cell line, log10 of GI50 in M, read-out: NCI-60 screening: Log(GI50) (converted)): 44.7 nM
- GI50 ([1]; SN12C, read-out: GI50): 45 nM
- GI50 ([1]; SNB-19, SNB-19, read-out: GI50): 91 nM
- GI50 ([1]; SNB-19, cell line SNB-19 (CNS:SNB-19), TMI sheet, read-out: NCI-60 screening: Log(GI50) (converted)): 91.2 nM
- GI50 ([1]; SR, read-out: GI50): 19 nM
- GI50 ([1]; SW-620, SW-620, read-out: GI50): 130 nM
- GI50 ([1]; SW-620, cell line SW-620 (CO:SW-620), TMI sheet, read-out: NCI-60 screening: Log(GI50) (converted)): 132 nM
- GI50 ([1]; SW-620, cell line SW-620 (CO:SW-620), TMI sheet, read-out: NCI-60 screening: Raw GI50): 130 nM
- GI50 ([1]; T47D, T-47D, read-out: GI50): 230 nM
- GI50 ([1]; T47D, cell line T-47D (BR:T-47D), TMI sheet, read-out: NCI-60 screening: Log(GI50) (converted)): 229 nM
- GI50 ([1]; TK-10, TK-10 (RE) cell line, log10 of GI50 in M, read-out: NCI-60 screening: Log(GI50) (converted)): 1050 nM
- GI50 ([1]; TK-10, TK-10, read-out: GI50): 1000 nM
- GI50 ([1]; U-251, U251, read-out: GI50): 81 nM
- GI50 ([1]; U-251, cell line U251 (CNS:U251), TMI sheet, read-out: NCI-60 screening: Log(GI50) (converted)): 81.3 nM
- GI50 ([1]; UACC-62, UACC-62, read-out: GI50): 140 nM
- GI50 ([1]; UACC-62, cell line UACC-62 (ME:UACC-62), TMI sheet, read-out: NCI-60 screening: Log(GI50) (converted)): 135 nM
- GI50 ([1]; UACC-62, cell line UACC-62 (ME:UACC-62), TMI sheet, read-out: NCI-60 screening: Raw GI50): 140 nM
- GI50 ([1]; UACC-257, UACC-257, read-out: GI50): 270 nM
- GI50 ([1]; UACC-257, cell line UACC-257 (ME:UACC-257), TMI sheet, read-out: NCI-60 screening: Log(GI50) (converted)): 275 nM
- GI50 ([1]; UACC-257, cell line UACC-257 (ME:UACC-257), TMI sheet, read-out: NCI-60 screening: Raw GI50): 270 nM
- GI50 ([1]; cell line M14 (ME:M14), TMI sheet, read-out: NCI-60 screening: Log(GI50) (converted)): 123 nM
- GI50 ([1]; cell line SF-539 (CNS:SF-539), TMI sheet, read-out: NCI-60 screening: Log(GI50) (converted)): 38.9 nM
- GI50 ([1]; cell line SR (LE:SR), TMI sheet, read-out: NCI-60 screening: Log(GI50) (converted)): 19.5 nM
- GI50 ([1]; cell line SR (LE:SR), TMI sheet, read-out: NCI-60 screening: Raw GI50): 19 nM
- NCI-60 screening: Log(RedIndex) ([1]; IGROV1 (OV) cell line, log10 reductive index vs P-CC60): 1.07
- GI50/IC50, mean ([1]; NCI-60 vs ProliFiler, 19 overlapping cell lines): 3.5
- NCI-60 screening: Log(RedIndex) ([1]; NCI-H460 (LC) cell line, log10 reductive index vs P-CC60): 1.36
- NCI-60 screening: Log(RedIndex) ([1]; NCI-H522 (LC) cell line, log10 reductive index vs P-CC60): 1.49
- NCI-60 screening: Log(RedIndex) ([1]; OVCAR-3 (OV) cell line, log10 reductive index vs P-CC60): 1.16
- NCI-60 screening: Log(RedIndex) ([1]; OVCAR-4 (OV) cell line, log10 reductive index vs P-CC60): 1.08
- NCI-60 screening: Log(RedIndex) ([1]; OVCAR-5 (OV) cell line, log10 reductive index vs P-CC60): 1.3
- NCI-60 screening: Log(RedIndex) ([1]; OVCAR-8 (OV) cell line, log10 reductive index vs P-CC60): 1.26
- NCI-60 screening: Log(RedIndex) ([1]; PC-3 (PR) cell line, log10 reductive index vs P-CC60): 0.82
- NCI-60 screening: Log(RedIndex) ([1]; RXF 393 (RE) cell line, log10 reductive index vs P-CC60): 1.48
- NCI-60 screening: Log(RedIndex) ([1]; SK-OV-3 (OV) cell line, log10 reductive index vs P-CC60): 1.47
- NCI-60 screening: Log(RedIndex) ([1]; SN12C (RE) cell line, log10 reductive index vs P-CC60): 1.43
- NCI-60 screening: Log(RedIndex) ([1]; TK-10 (RE) cell line, log10 reductive index vs P-CC60): 0.43
- NCI-60 screening: Log(RedIndex) ([1]; cell line A549/ATCC (LC:A549/ATCC), TMI sheet): 1.35
- NCI-60 screening: Log(RedIndex) ([1]; cell line BT-549 (BR:BT-549), TMI sheet): 1.04
- NCI-60 screening: Log(RedIndex) ([1]; cell line CCRF-CEM (LE:CCRF-CEM), TMI sheet): 0.57
- NCI-60 screening: Log(RedIndex) ([1]; cell line COLO 205 (CO:COLO 205), TMI sheet): 0.98
- NCI-60 screening: Log(RedIndex) ([1]; cell line EKVX (LC:EKVX), TMI sheet): 0.97
- NCI-60 screening: Log(RedIndex) ([1]; cell line HCC-2998 (CO:HCC-2998), TMI sheet): 1.45
- NCI-60 screening: Log(RedIndex) ([1]; cell line HCT-15 (CO:HCT-15), TMI sheet): 0.85
- NCI-60 screening: Log(RedIndex) ([1]; cell line HCT-116 (CO:HCT-116), TMI sheet): 0.99
- NCI-60 screening: Log(RedIndex) ([1]; cell line HL-60(TB) (LE:HL-60(TB)), TMI sheet): 1.19
- NCI-60 screening: Log(RedIndex) ([1]; cell line HOP-62 (LC:HOP-62), TMI sheet): 1.16
- NCI-60 screening: Log(RedIndex) ([1]; cell line HOP-92 (LC:HOP-92), TMI sheet): 1.15
- NCI-60 screening: Log(RedIndex) ([1]; cell line HT29 (CO:HT29), TMI sheet): 1.03
- NCI-60 screening: Log(RedIndex) ([1]; cell line K-562 (LE:K-562), TMI sheet): 0.88
- NCI-60 screening: Log(RedIndex) ([1]; cell line KM12 (CO:KM12), TMI sheet): 1.2
- NCI-60 screening: Log(RedIndex) ([1]; cell line LOX IMVI (ME:LOX IMVI), TMI sheet): 1.2
- NCI-60 screening: Log(RedIndex) ([1]; cell line M14 (ME:M14), TMI sheet): 1.09
- NCI-60 screening: Log(RedIndex) ([1]; cell line MALME-3M (ME:MALME-3M), TMI sheet): 1.07
- NCI-60 screening: Log(RedIndex) ([1]; cell line MCF7 (BR:MCF7), TMI sheet): 1.33
- NCI-60 screening: Log(RedIndex) ([1]; cell line MDA-MB-435 (ME:MDA-MB-435), TMI sheet): 1.08
- NCI-60 screening: Log(RedIndex) ([1]; cell line MOLT-4 (LE:MOLT-4), TMI sheet): 0.98
- NCI-60 screening: Log(RedIndex) ([1]; cell line NCI-H23 (LC:NCI-H23), TMI sheet): 1.4
- NCI-60 screening: Log(RedIndex) ([1]; cell line NCI-H226 (LC:NCI-H226), TMI sheet): 0.77
- NCI-60 screening: Log(RedIndex) ([1]; cell line RPMI-8226 (LE:RPMI-8226), TMI sheet): 1.02
- NCI-60 screening: Log(RedIndex) ([1]; cell line SF-268 (CNS:SF-268), TMI sheet): 1.42
- NCI-60 screening: Log(RedIndex) ([1]; cell line SF-295 (CNS:SF-295), TMI sheet): 1.15
- NCI-60 screening: Log(RedIndex) ([1]; cell line SF-539 (CNS:SF-539), TMI sheet): 1.53
- NCI-60 screening: Log(RedIndex) ([1]; cell line SK-MEL-5 (ME:SK-MEL-5), TMI sheet): 1.17
- NCI-60 screening: Log(RedIndex) ([1]; cell line SK-MEL-28 (ME:SK-MEL-28), TMI sheet): 1.35
- NCI-60 screening: Log(RedIndex) ([1]; cell line SNB-19 (CNS:SNB-19), TMI sheet): 1.39
- NCI-60 screening: Log(RedIndex) ([1]; cell line SR (LE:SR), TMI sheet): 1.15
- NCI-60 screening: Log(RedIndex) ([1]; cell line SW-620 (CO:SW-620), TMI sheet): 1.15
- NCI-60 screening: Log(RedIndex) ([1]; cell line T-47D (BR:T-47D), TMI sheet): 0.92
- NCI-60 screening: Log(RedIndex) ([1]; cell line U251 (CNS:U251), TMI sheet): 1.27
- NCI-60 screening: Log(RedIndex) ([1]; cell line UACC-62 (ME:UACC-62), TMI sheet): 1.05
- NCI-60 screening: Log(RedIndex) ([1]; cell line UACC-257 (ME:UACC-257), TMI sheet): 0.86
- mean reductive index ([1]; mean over NCI cell lines, vs P-CC60): 14
- reductive index ([1]; span over NCI cell lines, vs P-CC60): ≤ 30
- IC50 (HeLa-HRE cells; Homo sapiens, HeLa, 48 h, read-out: IC50(nM): HeLa): 200 nM
- IC50(HeLa)/IC50(A549) (HeLa-HRE cells; ratio HeLa vs A549): 17
